Assay [1] has as its system L-NAME-treated transgenic renin rat (TGR(mRen2)27). The experiment in a line: All-cause mortality / survival in L-NAME-treated renin transgenic rats. The class given is in vivo. The following applies: for Mortality: all-cause mortality during the study period, daily gavage, 15 animals per group, groups and doses per Table 1; for survival rate / animals died during the study period: finerenone 10 mg/kg od, compound of the formula (X) 1 mg/kg bid, alone or combined; for survival rate: over the study period, placebo survival 60%; for animals died during the study period: study terminated after 40% of placebo animals had died. The text has this: (§1) 3.) L-NAME-treated transgenic renin rat (TGR(mRen2)27)
(§2) The transgenic renin rat ‘TGR(mRen2)27’ is a hypertensive rat line developed by Mullins and Ganten which overexpresses the Ren-2 gene of the mouse. Additional administration of the nitrogen monoxide synthase inhibitor L-NAME induces endothelial dysfunction which increases morbidity and mortality in this model. Unless subjected to life-long antihypertensive therapy, homozygous animals die of secondary complications such as heart and kidney failure or stroke.
(§3) Male TGR(mRen2)27 renin rats aged 10 to 20 weeks are randomized to different pharmacological treatment groups and a placebo group. In addition, the nitrogen monoxide synthase inhibitor L-NAME is administered via the drinking water in a concentration of 30 to 100 mg/l. During the entire experiment, drinking water and feed are available ad libitum to the animals. The substances are administered via the feed or daily by gavage for 4-10 weeks. Animals treated in the same way but receiving either only the solvent or the feed without test substance serve as placebo group. During the experiment, the systolic blood pressure is determined at regular intervals using a tail cuff, and proteinuria and urine electrolyte composition are determined by collecting the urine in metabolic cages. At the end of the experiment, haemodynamic parameters (blood pressure, heart rate, inotropism[dp/dt], relaxation time[tau], maximum left ventricular pressure, left ventricular end-diastolic pressure[LVEDP]) are measured, and the weights of heart, kidney and lung are determined, protein elimination and biomarkers (e.g. ANP, RIA Kit RK 005-24, Phoenix Pharmaceuticals, Inc., USA, cGMP, RIA Kit RE29075, IBL International GmbH, Hamburg, Germany, renin, angiotensin I, RIA Kit CA-1533, DiaSorin S.p.A., Italy, and aldosterone, P2714, DiaSorin S.p.A., Italy) and gene expression of biomarkers by RT/TaqMan PCR following RNA isolation from cardiac and renal tissue are determined.
(§4) Cardiac and cardiovascular disorders as well as renal and cardiorenal disorders are characterized by high patient morbidity and also high mortality. This morbidity and mortality, together with various risk factors such as hypertension, can be reproduced very accurately in the above-described animal model of the L-NAME-treated renin transgenic rat. Therefore, this animal model, for example, was used to investigate MR antagonists such as, for example, finerenone according to the compound of the formula (IV) and sGC activators such as, for example, the compound of the formula (X), and combinations of both: […]
For example, the MR antagonist finerenone, corresponding to the compound of the formula (IV), and the sGC activator, corresponding to the compound of the formula (X), were tested on their own and in combinations in TGR(mRen2)27 renin rats aged 10 to 20 weeks. In addition, the nitrogen monoxide synthase inhibitor L-NAME was administered via the drinking water in a concentration of 30 to 100 mg/l. During the entire experiment, drinking water and feed were available ad libitum to the animals. The substances were administered daily by gavage for 4-10 weeks. Animals treated in the same way but receiving only the solvent for the test substance served as placebo group. In the test series, in addition to placebo (group A), the MR antagonist finerenone (10 mg/kg od) (group B) and the sGC activator corresponding to the compound of the formula (X) (1 mg/kg bid) (group C) on their own and a combination of finerenone (10 mg/kg od)+compound of the formula (X) (1 mg/kg bid) (group D) were administered. In this study, 15 animals were used per group (A, B, C, D) (Table 1):
After 40% of the placebo animals had died—the study was generally terminated once 40-50% of the placebo-treated animals had died, which corresponds to a survival rate of 60-50%—the study was terminated and the survival rates of the individual treatment groups were compared to one another.

For assay [2] the test system is unchanged. The assay can be described thus: Proteinuria (protein/creatinine quotient in urine) in L-NAME-treated renin transgenic rats. The class given is in vivo. The settings on record: for reduction of proteinuria, measured as protein/creatinine quotient in urine: finerenone 10 mg/kg od, compound of the formula (X) 1 mg/kg bid, alone or combined, versus placebo; for Urinary protein/creatinine quotient, % change vs placebo: proteinuria in % reduction from placebo at the end of the study, mean ± SEM, groups and doses per Table 1.
From the text: as §1, §2, §3, §4
Here, the quotient of protein excreted in the urine and creatinine excreted in the urine, the so-called protein/creatinine quotient, which can be used as a quantitative measure for the kidney damage, is determined.

Turning to `CCOc1ncc(C)c2c1[C@H](c1ccc(C#N)cc1OC)C(C(N)=O)=C(C)N2` [finerenone, (S)-4-(4-cyano-2-methoxyphenyl)-5-ethoxy-2,8-dimethyl-1,4-dihydro-1,6-naphthyridine-3-carboxamide], in assay [1], the Mortality is given as 20%, the survival rate is 80% and the “animals died during the study period” value came to 20%. Also, in assay [2], the “reduction of proteinuria, measured as protein/creatinine quotient in urine” value is reported as 58% and the “Urinary protein/creatinine quotient, % change vs placebo” value is given as −58 + 16%.

As for `C[C@H]([C@H](C(=O)Nc1cc([C@@H](CC(=O)O)C2CC2)ccc1Cl)c1ccc(Cl)cc1)C(F)(F)F` [compound of the formula (X), (3S)-3-(4-chloro-3-{[(2S,3R)-2-(4-chlorophenyl)-4,4,4-trifluoro-3-methylbutanoyl]amino}phenyl)-3-cyclopropylpropanoic acid], in assay [1], the Mortality is on record as 27%, the survival rate was 73% and the “animals died during the study period” value is 27%. In addition, in assay [2], the “reduction of proteinuria, measured as protein/creatinine quotient in urine” value is recorded as 8% and the “Urinary protein/creatinine quotient, % change vs placebo” value was −8 + 20%.

These data come from US20220241255A1, “COMBINATION CONTAINING SGC ACTIVATORS AND MINERALOCORTICOID RECEPTOR ANTAGONISTS” (Bayer Pharma Aktiengesellschaft, priority 2016, published 2022).
